Publication PMC12845261, “Design, Synthesis, and Biological Evaluation of N-Acyl-Hydrazone-Linked Quinazolinone Derivatives with Antioxidant, Antimicrobial, and Anticancer Potential” (Pharmaceuticals, 2025)
“And” between values parts separate entries of the source, which are not always exact repeats. Identical values can stand only once.

How the values were obtained:
[1] = Total antioxidant capacity (TAC), DPPH method; conditions: 30 min, 517 nm, compound stock 1 mg/mL in methanol, reference ascorbic acid TAC = 100%
Description: The total antioxidant capacity (TAC) was evaluated using diphenyl-1-picrylhydrazyl free radical (DPPH) method. The TAC value was determined in relation to the antioxidant capacity of the reference (ascorbic acid, TAC = 100%). […] The maximum value was recorded for 1c (~45%), followed by 1f and 1a (~43%), while the minimum for 1e (~19%).
In this study, the TAC values were obtained using the most-known DPPH method, in which the intense violet colour of the free radical solution is decreasing. Stock solutions of compounds 1a–1f and 2 were prepared in absolute methanol at a concentration of 1 mg/mL. A stock solution of 2,2-diphenyl-1-picrylhydrazyl free radical was obtained in the same solvent, at a concentration of 2 × 10^−4 M. To 1.8 mL of DPPH solution was added 0.2 mL of each solution of the compounds 1a–1f and 2 and the mixture was left in the dark for 30 min, followed by measurements of the absorbance at 517 nm. The following equation was used to calculate TAC: TAC%=Abs0 min−Abs30 min/Abs0min·100 where Abs0 min refers to the initial absorbance of the DPPH free radical solution, and Abs 30 min refers to the absorbance of the solution of DPPH and the added compound after 30 min. Ascorbic acid was used as a reference.

[2] = system: E. coli ATCC 25922; test: Qualitative antimicrobial activity, adapted Kirby-Bauer (inhibition zone); assay type: cell-based; conditions: 10 μL of 10 mg/mL DMSO stock, mean ± SD
Description: (§1) For the evaluation of antimicrobial activity, the following reference strains were used: S. aureus ATCC 25923, E. faecalis ATCC 29212, E. coli ATCC 25922, P. aeruginosa ATCC 27853 and C. albicans ATCC 10231. The microbial suspensions were prepared at a density of 1.5 × 10^8 CFU/mL, corresponding to the McFarland 0.5 nephelometric standard. These suspensions were obtained from 18–24 h cultures developed on solid media (Mueller-Hinton for bacteria, Sabouraud for yeast). Antimicrobial activity was assessed using an adapted Kirby-Bauer method according to CLSI (Clinical and Laboratory Standards Institute). In addition to the 10 mg/mL stock solutions prepared in DMSO for each compound, a solvent control was used. Each stock solution (10 μL) was distributed in spot on the medium inoculated with the interest strain. After measuring the diameter of the inhibition zone (IZD) around the spot (mm), the results were expressed as the mean ± standard deviation (SD) for each compound tested in duplicate.

[3] = system: S. aureus ATCC 25923; test: as above; assay type: cell-based; conditions: 10 μL of 10 mg/mL DMSO stock, mean ± SD
Description: as §1

[4] = system: C. albicans ATCC 10231; test: as above; assay type: cell-based; conditions: 10 μL of 10 mg/mL DMSO stock, mean ± SD
Description: as §1

[5] = system: E. faecalis ATCC 29212; test: as above; assay type: cell-based; conditions: 10 μL of 10 mg/mL DMSO stock, mean ± SD
Description: as §1

[6] = system: P. aeruginosa ATCC 27853; test: as above; assay type: cell-based; conditions: 10 μL of 10 mg/mL DMSO stock, mean ± SD
Description: as §1

[7] = Qualitative solubility in solvents; assay type: physicochemical
Description: The 2–5 mL reaction vials were loaded with a magnetic stirrer, 1 mmol of each reactant, acetohydrazide 2 and benzaldehydes, 4–4.5 mL of anhydrous ethanol and 2 drops of glacial acetic acid. Reaction conditions included 5 min of pre-stirring, followed by 40 min of irradiation at 100 °C, with the absorbance level set to “high”. The vials were left overnight in a refrigerator. The precipitates formed were filtered under vacuum, washed with cold ethanol and dried at room temperature. Thin-layer chromatography was performed to analyze and monitor the reaction. The compounds were confirmed by spectroscopic methods (FT-IR, ^1H-NMR and ^13C-NMR spectroscopy and mass spectrometry) and characterized by melting points, solubility and retention factors (Rf).

[8] = system: VERO (non-tumoral African green monkey kidney epithelial cells); test: Cytotoxicity, MTT assay; assay type: cell-based; conditions: 24 h; for Cytotoxic effect on normal cells (in words): 3.125 to 50 µM
[9] = system: E. coli ATCC 25922; test: Microbicidal activity (MMC); assay type: cell-based; conditions: DMSO control 5
Description: For the evaluation of antimicrobial activity, the following reference strains were used: S. aureus ATCC 25923, E. faecalis ATCC 29212, E. coli ATCC 25922, P. aeruginosa ATCC 27853 and C. albicans ATCC 10231. To determine the MMCs, 5 μL of culture was taken from each well and distributed on solid medium. The plates were incubated for 20–24 h at 37 °C. The lowest concentration at which no microbial growth was observed was considered MMC.

[10] = at lower concentrations (below 50 µM)

SMILES | TAC (%) [1] | IZD (mm) [2] [mm] | IZD (mm) [3] [mm] | IZD (mm) [4] [mm] | IZD (mm) [5] [mm] | IZD (mm) [6] [mm] | Solubility ([7]; DMF) | Solubility ([7]; DMSO) | Solubility ([7]; acetone) | Solubility ([7]; methanol) | Solubility ([7]; water) | Effect on cell viability (in words) [8, 10] | Solubility ([7]; 2-propanol) | MMC [9] [mg/mL] | Effect on cell viability (in words) ([8]; at 50 µM, compared to the untreated control) | Cytotoxic effect on normal cells (in words) [8]
Cc1nc2ccccc2c(=O)n1CC(=O)N/N=C/c1cc(Br)ccc1O [Compound 1a, N′-[(E)-(5-bromo-2-hydroxyphenyl)methylidene]-2-(2-methyl-4-oxoquinazolin-3(4H)-yl)acetohydrazide] | 42.7% | 0.00 ± 0.00 | 0.00 ± 0.00 | 0.00 ± 0.00 | 0.00 ± 0.00 | 0.00 ± 0.00 | soluble | soluble | soluble | slightly soluble | insoluble | – | – | – | – | –
Cc1nc2ccccc2c(=O)n1CC(=O)N/N=C/c1cc(Br)cc(Br)c1O [Compound 1b, N′-[(E)-(3,5-bromo-2-hydroxyphenyl)methylidene]-2-(2-methyl-4-oxoquinazolin-3(4H)-yl)acetohydrazide] | 38.9% | 0.00 ± 0.00 | 12.33 ± 0.58 | 0.00 ± 0.00 | 0.00 ± 0.00 | 0.00 ± 0.00 | soluble | soluble | soluble | slightly soluble | insoluble | statistically significant increase in cell viability | slightly soluble | – | – | –
COc1cccc(/C=N/NC(=O)Cn2c(C)nc3ccccc3c2=O)c1O [Compound 1c, N′-[(E)-(2-hydroxy-3-methoxyphenyl)methylidene]-2-(2-methyl-4-oxoquinazolin-3(4H)-yl)acetohydrazide] | 45.1% | 0.00 ± 0.00 | 7.67 ± 0.58 | 6.67 ± 0.58 | 7.67 ± 0.58 | 0.00 ± 0.00 | soluble | soluble | soluble | slightly soluble | insoluble | – | – | 5 | – | –
COc1ccc(/C=N/NC(=O)Cn2c(C)nc3ccccc3c2=O)c(O)c1 [Compound 1d, N′-[(E)-(2-hydroxy-4-methoxyphenyl)methylidene]-2-(2-methyl-4-oxoquinazolin-3(4H)-yl)acetohydrazide] | 19.3% and 20.5% | 0.00 ± 0.00 | 0.00 ± 0.00 | 0.00 ± 0.00 | 0.00 ± 0.00 | 0.00 ± 0.00 | soluble | soluble | soluble | slightly soluble | insoluble | statistically significant increase in cell viability | – | 5 | statistically significant decrease in viability | –
COc1ccc(O)c(/C=N/NC(=O)Cn2c(C)nc3ccccc3c2=O)c1 [Compound 1e, N′-[(E)-(2-hydroxy-5-methoxyphenyl)methylidene]-2-(2-methyl-4-oxoquinazolin-3(4H)-yl)acetohydrazide] | 19.3% | 0.00 ± 0.00 | 0.00 ± 0.00 | 0.00 ± 0.00 | 0.00 ± 0.00 | 0.00 ± 0.00 | soluble | soluble | – | slightly soluble | insoluble | – | – | 5 | – | strong cytotoxic effects
COc1cc(/C=N/NC(=O)Cn2c(C)nc3ccccc3c2=O)cc([N+](=O)[O-])c1O [Compound 1f, N′-[(E)-(4-hydroxy-3-methoxy-5-nitrophenyl)methylidene]-2-(2-methyl-4-oxoquinazolin-3(4H)-yl)acetohydrazide] | 43.4% | 0.00 ± 0.00 | 0.00 ± 0.00 | 0.00 ± 0.00 | 0.00 ± 0.00 | 0.00 ± 0.00 | soluble | soluble | soluble | slightly soluble | insoluble | – | – | – | – | well tolerated
Cc1nc2ccccc2c(=O)n1CC(=O)NN [Compound 2, 2-(2-methyl-4-oxoquinazolin-3(4H)-yl)acetohydrazide] | 19.7% | 0.00 ± 0.00 | 0.00 ± 0.00 | 6.33 ± 1.53 | 0.00 ± 0.00 | 0.00 ± 0.00 | – | – | – | – | – | – | – | – | – | well tolerated
